The source of these data is patent US20240226083A9, “MEDICAMENT FOR TREATMENT AND/OR PROPHYLACTIC TREATMENT OF CANCERS” (Belina Pharma AB, priority 2019, published 2024).

Each structure is given as a SMILES string.

Assay [1] concerns all tumour types. The experiment in a line: Swedish nation-wide register study, cancer specific survival of antihistamine users vs non-users: across tumour types. The format is in vivo, human. Conditions: for effect of use on survival, all tumour types: users vs non-users, in words. The method, then: (§1) Both peri- and post-diagnostic antihistamine use was analyzed, using Cox regression models, as well as different subgroups of patients with regard to age, gender (as a proxy for sex) and tumor status.
(§2) Material and methods Linking the Cancer Registry with the Drug Prescription Registry and Cause of Death Registry the survival of over 500 000 cancer patients with cancer in the breast-, prostate, ventrikel, pancreas, kidney, colo-rectal, lung, uterus, ovary, brain, melanoma, lymph gland and bone marrow was studied between 2005-2014.
(§3) Use of the six major antihistamines was established using the Swedish Prescribed Drug Register, a record of all dispensed prescribed pharmaceuticals in Sweden since July 1st 2005. To be included in the registry at least 2 weeks of prescription is required. Prescription free antihistamine use, non-dispensed doses, or use of other, less common, types of antihistamines is here considered non-use. Causes of death were obtained from the Swedish Cause of Death Register, a database where all deaths have been recorded since 1952. Data was pseudo-anonymized and the study was approved by the Regional Ethics Board.
(§4) We analyzed both the peri- and cumulative post-diagnostic use of antihistamines among […]. Peri-diagnostic use was a proxy for ever-use, and is here defined as use within six months pre-diagnosis and six months post-diagnosis, where the main antihistamine (in terms of dispensed defined daily doses, or DDDs) used by each individual during this time was identified. The analysis was done using a Cox regression model with time to even or censoring in years as a time scale. Subgroup analyses were made for groups based on age and gender (as a proxy for sex).
(§5) For the cumulative post-diagnostic antihistamine use analysis, mortality rates for antihistamine users were compared to those of non-users through a Cox regression model allowing for time varying covariates, and survival time was measured in years since diagnosis. This allowed for a single individual to provide data as both a non-user and user of different antihistamines. The impact of the cumulative DDDs was assessed after log transformation of the DDDs plus one3. Cox regression analyses were stratified for patient age at diagnosis, tumor size and node status (T and N status, respectively). A lag-time analysis was performed as described by Tamim et al. and Richardson et al. Statistical analyses were performed using R version XXX6.
(§6) Information on stage, socio-economic factors, tumour therapies, and prognostic tumour factors are not present in the national registries.
(§7) The confidence interval (95% CI) indicates the level of uncertainty around the measure of effect. A 95% confidence interval means that the confidence interval covers the true value in 95 of 100 studies performed. […]

For assay [2], the system named is breast cancer. Conditions: earlier filing, in words; cited from earlier work.
Assay [3] relates to breast cancer. Put plainly: Swedish nation-wide register study, cancer specific survival of antihistamine users vs non-users: breast cancer. The format is in vivo, human. Conditions: in words. The method, then: as §1, §2
Use of the six major antihistamines was established using the Swedish Prescribed Drug Register, a record of all dispensed prescribed pharmaceuticals in Sweden since July 1st 2005. To be included in the registry at least 2 weeks of prescription is required. […] Causes of death were obtained from the Swedish Cause of Death Register, a database where all deaths have been recorded since 1952. […]
We analyzed both the peri- and cumulative post-diagnostic use of antihistamines among melanoma patients. […]
(§8) For the cumulative post-diagnostic antihistamine use analysis, mortality rates for antihistamine users were compared to those of non-users through a Cox regression model allowing for time varying covariates, and survival time was measured in years since diagnosis. […] The impact of the cumulative DDDs was assessed after log transformation of the DDDs plus one3. […]

Assay [4] deals with patients with gastric cancer. The experiment in a line: Swedish nation-wide register study, cancer specific survival of antihistamine users vs non-users: gastric cancer. Type of assay: in vivo, human. Conditions: for effect of use on gastric cancer survival: users vs non-users, in words. As to the method:
as §1, §2, §3, §4, §8

Assay [5] concerns patients with pancreatic cancer. Put plainly: Swedish nation-wide register study, cancer specific survival of antihistamine users vs non-users: pancreatic cancer. Conditions: for effect of use on pancreatic cancer survival: users vs non-users, in words. The format is in vivo, human. As to the method: as §1, §2, §3, §4, §8
Assay [6] has as its system patients with ovarian cancer. Put plainly: Swedish nation-wide register study, cancer specific survival of antihistamine users vs non-users: ovarian cancer. Type of assay: in vivo, human. Conditions: for effect of use on ovarian cancer survival: users vs non-users, in words. The method, then: as §1, §2, §3, §4, §5, §6, §7
For assay [7], the system named is patients with prostate cancer. Put plainly: Swedish nation-wide register study, cancer specific survival of antihistamine users vs non-users: prostate cancer. The format is in vivo, human. Conditions: in words.
Description: (§9) For the cumulative post-diagnostic antihistamine use analysis, mortality rates for antihistamine users were compared to those of non-users through a Cox regression model allowing for time varying covariates, and survival time was measured in years since diagnosis. This allowed for a single individual to provide data as both a non-user and user of different antihistamines. The impact of the cumulative DDDs was assessed after log transformation of the DDDs plus one3. Cox regression analyses were stratified for patient age at diagnosis, tumor size and node status (T and N status, respectively). […]
In assay [8] the test system is lympho-hematopoetic malignancies. The experiment in a line: Swedish nation-wide register study, cancer specific survival of antihistamine users vs non-users: lympho-hematopoetic malignancies. Type of assay: in vivo, human. Conditions: in words.
Description: as §9
The test system of assay [9] is patients with Hodgkin's disease. Put plainly: Swedish nation-wide register study, cancer specific survival of antihistamine users vs non-users: Hodgkin's disease. Type of assay: in vivo, human.
For assay [10], the system named is patients with lung cancer. The experiment in a line: Swedish nation-wide register study, cancer specific survival of antihistamine users vs non-users: lung cancer. The format is in vivo, human.
Assay [11] deals with patients with brain cancer. Put plainly: Swedish nation-wide register study, cancer specific survival of antihistamine users vs non-users: brain cancer. The format is in vivo, human. The note with it: in words.
Assay [12] relates to patients with colo-rectal cancer. The experiment in a line: Swedish nation-wide register study, cancer specific survival of antihistamine users vs non-users: colorectal cancer. Type of assay: in vivo, human.
The test system of assay [13] is patients with uterus cancer. Put plainly: Swedish nation-wide register study, cancer specific survival of antihistamine users vs non-users: uterine cancer. Conditions: in words. The format is in vivo, human.

In the case of `CN1CCC[C@@H]1CCO[C@](C)(c1ccccc1)c1ccc(Cl)cc1` [Clemastine, clemastine], the “effect of use on survival, all tumour types” value in [1] is given as “consistently showed a worse survival”.
Regarding `CC(C)(C)c1ccc(C(=O)CCCN2CCC(OC(c3ccccc3)c3ccccc3)CC2)cc1` [Ebastine, ebastine], the “effect on breast cancer survival (WO 2016/116438)” value in assay [2] is “positive effect”. In addition, the “effect of use on breast cancer survival” value in [3] was “increased breast cancer survival”.
On to `O=C(O)COCCN1CCN(C(c2ccccc2)c2ccc(Cl)cc2)CC1` (stereo not shown) [Ceterizine, cetirizine], for which the “effect of use on gastric cancer survival” value in [4] is reported as “better survival”. For the same compound, the “effect of use on pancreatic cancer survival” value in assay [5] is “better survival”. For the same compound, the “effect of use on ovarian cancer survival” value in [6] is “better survival”.
For the compound `CCOC(=O)N1CCC(=C2c3ccc(Cl)cc3CCc3cccnc32)CC1` [loratadine], the “effect of use on ovarian cancer survival” value in [6] is “survival was better”. The “course of survival curves relative to non-users” value in assay [1] (FIGS. 7 to 18, in words) is “most survival curves became parallel to non-users suggesting a long time curative effect”.
With `CC(C)(C(=O)O)c1ccc(C(O)CCCN2CCC(C(O)(c3ccccc3)c3ccccc3)CC2)cc1` (stereo not shown) [fexofenadine], in assay [1], the “effect of use on survival, all tumour types” value is given as “insignificant”.
As for `Clc1ccc2c(c1)CCc1cccnc1C2=C1CCNCC1` [desloratadine], the “5 year survival chance increased by (gastric cancer)” value in [4] (gastric cancer, baseline 5 year survival 25% 2016, FIG. 1) was found to be 30%. In assay [4], the “effect of use on gastric cancer survival” value is on record as “consistently beneficial effect”. Also, the “effect of use on prostate cancer survival” value in assay [7] is given as “consistently beneficial effect”. The “effect of use on survival in lympho-hematopoetic malignancies” value in assay [8] is listed as “no effect”. For the same compound, the “5 year survival chance increased by (Hodgkin's disease)” value in [9] (Hodgkin's disease, baseline 5 year survival about 86% 2016, FIG. 1) was 17%. Besides, in [9] (users vs non-users, in words), the “effect of use on Hodgkin's disease survival” value is listed as “strong survival benefit”. Also, the “5 year survival chance increased by (lung cancer)” value in assay [10] (lung cancer, baseline 5 year survival about 20% 2016, FIG. 1) was found to be 15%. Moreover, the “effect of use on lung cancer survival” value in [10] (users vs non-users, in words) was “consistently beneficial effect”. Also, the “5 year survival chance increased by (pancreatic cancer)” value in assay [5] (pancreatic cancer, baseline 5 year survival about 8% 2016, FIG. 1) stood at 35%. In addition, the “effect of use on pancreatic cancer survival” value in assay [5] was “consistently beneficial effect”. For the same compound, the “effect of use on brain cancer survival” value in assay [11] is “no effect”. In addition, the “5 year survival chance increased by (colorectal cancer)” value in assay [12] (colorectal cancer, baseline 5 year survival about 65% 2016, FIG. 1) is listed as 15%. Also, the “effect of use on colorectal cancer survival” value in assay [12] (users vs non-users, in words) is listed as “consistently beneficial effect”. In assay [2], the “effect on breast cancer survival (WO 2016/116438)” value is on record as “positive effect”. Also, in [3], the “effect of use on breast cancer survival” value was “consistently beneficial effect”. In addition, the “5 year survival chance increased by (ovarian cancer)” value in assay [6] (ovarian cancer, baseline 5 year survival about 55% 2016, FIG. 1) is on record as 17%. Besides, in assay [6], the “effect of use on ovarian cancer survival” value is listed as “consistently beneficial effect”. The “curative effect suggested by survival curves” value in assay [1] (said cancers, survival curves with follow up parallel to non-treated, FIGS. 7 to 18) is 10-20%. For the same compound, in [13], the “effect of use on uterine cancer survival” value is given as “no effect”.
